Experimental data as given in patent US8193193B2, “Agent for prevention or treatment of glaucoma” (Kowa Co., Ltd., priority 2005, dated 2012).

Key:
IOP [1] = test: Ocular hypotensive effect after instillation, alone or in combination, in rabbits (change from initial IOP); assay type: in vivo, Japanese white rabbits; settings: male JW rabbits, brinzolamide 1%, 50 μL; for persistence of ocular hypotensive action (FIG. 1): after 3 or 4 hours from instillation, 0.5% solution; for persistence of ocular hypotensive action (FIG. 2): after 4 and also 5 hours from instillation, 1.5% solution
Experimental: To examine usefulness of combination use of a Rho kinase inhibitor and a carbonic anhydrase inhibitor, the ocular hypotensive effects were compared by administering either of these drugs alone or both in combination to laboratory animals. (S)-(−)-1-(4-fluoro-5-isoquinolinesulfonyl)-2-methyl-1,4-homopiperazine-hydrochloride dihydrate was dissolved in physiological saline, and the solution was neutralized (pH 6.0) by adding sodium dihydrogenphosphate and sodium hydroxide to prepare a (S)-(−)-1-(4-fluoro-5-isoquinolinesulfonyl)-2-methyl-1,4-homopiperazine solution at a desired concentration. The commercially available “Eril® S Injection” (Asahi Kasei Pharma) was used as it was. The commercially available “Azopt® Ophthalmic Suspension 1%” (Alcon Japan Ltd.) was used as it was. The ocular hypotensive effect was examined after the combination use of (S)-(−)-1-(4-fluoro-5-isoquinolinesulfonyl)-2-methyl-1,4-homopiperazine and brinzolamide. As a control, the ocular hypotensive effect was also examined after the use of brinzolamide alone or (S)-(−)-1-(4-fluoro-5-isoquinolinesulfonyl)-2-methyl-1,4-homopiperazine alone. Similarly, the ocular hypotensive effect was examined after the combination use of hexahydro-1-(5-isoquinolinesulfonyl)-1H-1,4-diazepine and brinzolamide. As a control, the ocular hypotensive effect was also examined after the use of brinzolamide alone or hexahydro-1-(5-isoquinolinesulfonyl)-1H-1,4-diazepine alone. (S)-(−)-1-(4-fluoro-5-isoquinolinesulfonyl)-2-methyl-1,4-homopiperazine solution: 0.5% solution (instillation volume, 50 μL) Hexahydro-1-(5-isoquinolinesulfonyl)-1H-1,4-diazepine solution: fasudil hydrochloride hydrate injection (1.5% solution [trade name: Eril® S Injection]; instillation volume, 50 μL) Brinzolamide solution: brinzolamide ophthalmic solution ([trade name: Azopt® Ophthalmic Suspension 1%]; instillation volume, 50 μL) Laboratory animals: Japanese white rabbits (male JW rabbits, 5 animals per group) 1). One drop of 0.4% oxybuprocaine hydrochloride ophthalmic solution (trade name: Benoxil Ophthalmic Solution 0.4%) was instilled in both eyes of the laboratory animals for local anesthesia (only data for the instilled eyes are shown). 2) IOP was measured immediately before administration of the test compound solution as the initial IOP. 3) The brinzolamide solution was instilled in one eye of the laboratory animals, followed by the instillation of (S)-(−)-1-(4-fluoro-5-isoquinolinesulfonyl)-2-methyl-1,4-homopiperazine solution in the same eye. 4) At 1 hour, 2 hours, 3 hours, 4 hours, and 5 hours after the instillation of both drugs, one drop each of 0.4% oxybuprocaine hydrochloride ophthalmic solution was instilled in both eyes for local anesthesia, and IOP was measured. […]

IOP [2] = settings: rabbits with normal IOP, cited from earlier work

| SMILES | persistence of ocular hypotensive action (FIG. 1) (IOP [1]) | time after instillation from which IOP is lowered (IOP [2]) | maximum IOP reduction (IOP [2]; instillation, concentration of 0.1%) | persistence of ocular hypotensive action (FIG. 2) (IOP [1]) |
| --- | --- | --- | --- | --- |
| C[C@H]1CNCCCN1S(=O)(=O)c1cccc2cncc(F)c12 [(S)-(−)-1-(4-fluoro-5-isoquinolinesulfonyl)-2-methyl-1,4-homopiperazine] | ocular hypotensive effect disappeared |  |  |  |
| C[C@@H](N)c1ccc(C(=O)Nc2ccnc3[nH]ccc23)cc1 [Y-39983, 4-[(1R)-1-aminoethyl]-N-1H-pyrrolo[2,3-b]pyridin-4-ylbenzamide] |  | 1 h | 15 mmHg |  |
| CCN[C@H]1CN(CCCOC)S(=O)(=O)c2sc(S(N)(=O)=O)cc21 [brinzolamide] | ocular hypotensive effect disappeared |  |  | ocular hypotensive effect disappeared |
| O=S(=O)(c1cccc2cnccc12)N1CCCNCC1 [hexahydro-1-(5-isoquinolinesulfonyl)-1H-1,4-diazepine] |  |  |  | ocular hypotensive effect disappeared |
